Data on four compounds can be found in US9902734B2, “Nicotinic acetylcholine receptor agonists” (priority 2010, dated 2018).

For assay [1], the system named is nicotinic acetylcholine receptors (cell lines expressing various combinations of nicotinic-receptor subunits). The assay is described as follows: functional fluorescence bioassay of HPLC fractions across several cell lines. It counts as cell-based. The note with it: for nicotinic receptor agonist activity (time-bioactivity profile of HPLC fractions): several cell lines. How it is done: (§1) The structures of compounds 1-6 are set forth below.
(§2) Biological Investigation of Phantasmidine. Semi-preparative HPLC-bioassay analysis was conducted as described previously^9 on the alkaloid fraction of E. anthonyi in several cell lines, including TE-671 (neuromuscular),^16 SH-SY5Y (ganglionic α3*, α3β4*, α7),^15 and several transfected cell lines expressing nicotinic receptor subunit combinations of α2-4 and β2/β4.^12,13,17
(§3) Collected analytical scale fractions in 96-well plates were reconstituted in situ with 300 μL Hanks balanced salt solution containing 20 mM HEPES at pH 7.4 (HBSS/HEPES) and were used as such. Cell lines expressing various nicotinic receptors were maintained in culture and used for functional fluorescence assays including SH-SY5Y, IMR-32, TE-671, KXα3β4R2, KXα4β4R1, and KXα4β2R2, as previously described.^9,11 Briefly, cells were plated onto 96-well poly-D-lysine-coated plates in Dulbecco's modified minimum essential media supplemented with 10% fetal bovine serum (supplemented with Geneticin G418 for KXα3β4R2, KXα4β4R1, and KXα4β2R2 cells) and grown to near confluence. The media was aspirated and the cells were gently washed with 2×100 μL HBSS/HEPES (pH 7.4). A solution of Molecular Devices no-wash membrane potential dye (30 μL) was added and the cells incubated in the dark at room temperature for 1 h. Plates were read on a FLEXSTATION™ (Molecular Devices) robotic plate reader at an excitation wavelength of 530 nm, emission wavelength of 565 nm, with a cutoff filter at 550 nm. Basal fluorescence was measured for 15 s and 30 μL of reconstituted E. anthonyi fraction in HBSS/HEPES were added. Response was measured for 105 s and 30 μL of 300 μM nicotine were added. The nicotine response was measured for 40 s and 30 μL of 160 mM KCl were added. Maximal fluorescence was measured for 40 s. Average basal fluorescence was subtracted and response was taken as the peak fluorescence for each addition divided by the maximal KCl fluorescence. Responses for each fraction were plotted as a function of time and compared to the UV and total ion chromatograms to identify active components. Preparative-scale isolation was then conducted and structures of active components were elucidated.

Assay [2] addresses T1, KXα3β4R2 cells (HEK cells expressing rat α3 and β4 nicotinic receptor subunits) (Rattus norvegicus, UniProt P04757+P12392).
T1 construct: expressed in transfected cells; host or cells: HEK cells (KXα3β4R2)
It is filed as cell-based.

The subject of the next assay is nicotinic receptors. The conditions noted are these: cited from earlier work.
Assay [3] concerns the target T2, K-177 cells (β2-containing) (Homo sapiens, UniProt P17787+P43681).
T2 construct: expressed in transfected cells; host or cells: K-177
In words: functional fluorescence bioassay of HPLC fractions. It is filed as cell-based. The procedure:
as §1, §2

The subject of assay [4] is SH-SY5Y cells (ganglionic α3*, α3β4*, α7). In words: functional fluorescence (membrane potential dye) bioassay of HPLC fractions. It counts as cell-based. The procedure: as §1, §2, §3
The target of assay [5] is T3, TE-671 cells (neuromuscular) (Homo sapiens, UniProt P02708+P07510+Q07001).
T3 construct: endogenous in cells; host or cells: TE-671
T3 sequence (P02708 21-457): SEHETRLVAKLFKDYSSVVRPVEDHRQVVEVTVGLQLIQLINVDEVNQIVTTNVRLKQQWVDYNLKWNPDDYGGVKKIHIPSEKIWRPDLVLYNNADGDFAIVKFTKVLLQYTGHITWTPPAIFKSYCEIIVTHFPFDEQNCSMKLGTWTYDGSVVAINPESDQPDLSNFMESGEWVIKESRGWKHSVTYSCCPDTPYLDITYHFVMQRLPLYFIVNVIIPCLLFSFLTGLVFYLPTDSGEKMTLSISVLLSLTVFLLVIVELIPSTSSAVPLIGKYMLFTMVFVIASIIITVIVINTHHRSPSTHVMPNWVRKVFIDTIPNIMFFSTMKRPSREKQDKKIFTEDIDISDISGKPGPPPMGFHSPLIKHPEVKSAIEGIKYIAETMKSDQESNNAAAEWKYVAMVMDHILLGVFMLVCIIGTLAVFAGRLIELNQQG
T3 sequence (P11230 24-501 partner): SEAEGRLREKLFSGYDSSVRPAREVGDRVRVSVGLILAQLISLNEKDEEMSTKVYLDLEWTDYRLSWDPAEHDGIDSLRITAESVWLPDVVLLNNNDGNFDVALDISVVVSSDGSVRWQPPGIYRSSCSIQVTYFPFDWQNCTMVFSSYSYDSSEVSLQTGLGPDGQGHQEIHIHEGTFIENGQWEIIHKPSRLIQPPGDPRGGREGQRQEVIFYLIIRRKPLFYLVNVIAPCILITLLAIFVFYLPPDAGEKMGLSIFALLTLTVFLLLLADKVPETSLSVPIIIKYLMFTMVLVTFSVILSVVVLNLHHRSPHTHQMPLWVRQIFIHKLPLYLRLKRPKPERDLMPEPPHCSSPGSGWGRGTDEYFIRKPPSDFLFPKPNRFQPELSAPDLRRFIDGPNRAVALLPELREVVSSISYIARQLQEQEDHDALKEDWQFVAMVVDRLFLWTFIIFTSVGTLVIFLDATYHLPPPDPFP
T3 sequence (P07510 23-517): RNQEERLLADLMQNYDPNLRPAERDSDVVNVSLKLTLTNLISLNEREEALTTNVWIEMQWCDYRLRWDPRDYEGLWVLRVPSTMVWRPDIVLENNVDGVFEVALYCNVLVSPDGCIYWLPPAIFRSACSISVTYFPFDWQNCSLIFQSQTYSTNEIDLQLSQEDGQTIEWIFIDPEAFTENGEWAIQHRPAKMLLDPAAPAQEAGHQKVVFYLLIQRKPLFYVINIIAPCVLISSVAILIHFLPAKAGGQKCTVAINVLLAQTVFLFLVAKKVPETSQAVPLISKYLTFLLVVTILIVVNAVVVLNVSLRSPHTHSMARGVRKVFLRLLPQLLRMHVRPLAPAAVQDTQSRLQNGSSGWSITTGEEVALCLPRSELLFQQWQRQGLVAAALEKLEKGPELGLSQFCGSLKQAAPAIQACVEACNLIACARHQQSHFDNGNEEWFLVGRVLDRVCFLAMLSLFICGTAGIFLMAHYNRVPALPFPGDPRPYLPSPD
T3 sequence (Q07001 22-517): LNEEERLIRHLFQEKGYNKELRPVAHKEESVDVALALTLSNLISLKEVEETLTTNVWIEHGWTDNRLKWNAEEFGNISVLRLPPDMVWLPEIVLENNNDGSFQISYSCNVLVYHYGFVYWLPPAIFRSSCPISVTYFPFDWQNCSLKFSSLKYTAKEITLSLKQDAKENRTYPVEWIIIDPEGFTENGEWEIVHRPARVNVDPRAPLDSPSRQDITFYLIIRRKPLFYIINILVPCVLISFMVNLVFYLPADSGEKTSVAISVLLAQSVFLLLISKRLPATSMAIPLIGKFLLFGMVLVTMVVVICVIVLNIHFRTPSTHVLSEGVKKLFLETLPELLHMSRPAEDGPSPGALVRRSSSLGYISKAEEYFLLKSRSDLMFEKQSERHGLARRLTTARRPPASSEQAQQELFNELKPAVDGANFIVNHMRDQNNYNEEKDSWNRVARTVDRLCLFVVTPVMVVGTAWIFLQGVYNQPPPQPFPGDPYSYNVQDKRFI
Described as above. It counts as cell-based. The procedure: as §1, §2, §3

The target in assay [6] is T4, KXα4β2R2 cells (β2-containing) (Rattus norvegicus, UniProt P09483+P12390).
T4 construct: expressed in transfected cells; host or cells: KXα4β2R2 (G418-selected transfected line)
T4 sequence (P12390 25-500): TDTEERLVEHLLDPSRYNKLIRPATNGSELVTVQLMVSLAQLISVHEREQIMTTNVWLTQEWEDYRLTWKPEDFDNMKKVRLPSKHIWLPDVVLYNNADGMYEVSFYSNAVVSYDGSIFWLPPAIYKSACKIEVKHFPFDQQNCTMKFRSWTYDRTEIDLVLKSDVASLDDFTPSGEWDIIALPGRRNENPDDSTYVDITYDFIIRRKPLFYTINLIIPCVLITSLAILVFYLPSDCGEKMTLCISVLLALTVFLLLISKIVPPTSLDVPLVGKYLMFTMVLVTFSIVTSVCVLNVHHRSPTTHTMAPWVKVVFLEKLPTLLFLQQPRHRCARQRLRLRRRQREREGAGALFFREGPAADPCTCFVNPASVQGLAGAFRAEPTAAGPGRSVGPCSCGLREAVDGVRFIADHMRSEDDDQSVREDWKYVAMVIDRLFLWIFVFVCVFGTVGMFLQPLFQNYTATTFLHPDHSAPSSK
T4 sequence (P09483 31-630): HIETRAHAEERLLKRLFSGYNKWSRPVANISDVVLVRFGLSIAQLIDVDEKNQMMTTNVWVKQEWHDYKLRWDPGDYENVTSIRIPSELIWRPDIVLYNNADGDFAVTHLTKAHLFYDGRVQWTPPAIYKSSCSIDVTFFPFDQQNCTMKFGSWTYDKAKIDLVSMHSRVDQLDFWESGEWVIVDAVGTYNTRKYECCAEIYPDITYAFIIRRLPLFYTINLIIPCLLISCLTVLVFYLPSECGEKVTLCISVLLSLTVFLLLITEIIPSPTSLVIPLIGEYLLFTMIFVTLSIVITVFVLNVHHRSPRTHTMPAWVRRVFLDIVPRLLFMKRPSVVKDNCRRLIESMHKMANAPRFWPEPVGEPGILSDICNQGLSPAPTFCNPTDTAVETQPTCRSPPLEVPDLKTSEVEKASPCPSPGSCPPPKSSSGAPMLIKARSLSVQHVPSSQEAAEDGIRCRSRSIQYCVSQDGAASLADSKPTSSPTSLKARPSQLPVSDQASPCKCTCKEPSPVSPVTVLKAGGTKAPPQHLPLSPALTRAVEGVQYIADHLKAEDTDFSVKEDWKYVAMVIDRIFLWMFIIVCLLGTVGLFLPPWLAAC
The assay is described as above. It counts as cell-based. The procedure: as §1, §2, §3

Assay [7] deals with T5, KXα4β4R1 cells (β4 nicotinic subunits) (Rattus norvegicus, UniProt P09483+P12392).
T5 construct: expressed in transfected cells; host or cells: KXα4β4R1 (G418-selected transfected line)
T5 sequence (P09483 31-630): as above
T5 sequence (P12392 21-495): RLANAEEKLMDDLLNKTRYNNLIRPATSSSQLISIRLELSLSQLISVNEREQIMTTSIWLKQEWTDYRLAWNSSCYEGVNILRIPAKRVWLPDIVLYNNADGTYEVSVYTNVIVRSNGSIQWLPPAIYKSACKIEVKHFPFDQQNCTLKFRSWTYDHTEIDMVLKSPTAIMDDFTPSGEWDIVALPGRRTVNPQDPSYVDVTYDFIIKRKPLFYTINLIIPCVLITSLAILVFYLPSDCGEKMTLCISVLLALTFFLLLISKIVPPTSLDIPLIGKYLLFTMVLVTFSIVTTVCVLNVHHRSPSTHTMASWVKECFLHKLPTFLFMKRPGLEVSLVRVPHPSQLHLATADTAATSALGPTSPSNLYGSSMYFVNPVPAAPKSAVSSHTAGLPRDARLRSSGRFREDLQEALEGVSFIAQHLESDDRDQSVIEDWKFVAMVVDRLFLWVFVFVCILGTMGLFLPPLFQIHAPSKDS
The description is as above. It counts as cell-based. The procedure:
as §1, §2, §3

For assay [8], the system named is IMR-32 cells (β4 nicotinic subunits). The assay is described as above. It counts as cell-based. How it is done:
as §1, §2, §3

Entries after “also recorded” stand apart in the source; their conditions may differ.

T1 sequence (P12392 21-495): as above
T1 sequence (P04757 26-499): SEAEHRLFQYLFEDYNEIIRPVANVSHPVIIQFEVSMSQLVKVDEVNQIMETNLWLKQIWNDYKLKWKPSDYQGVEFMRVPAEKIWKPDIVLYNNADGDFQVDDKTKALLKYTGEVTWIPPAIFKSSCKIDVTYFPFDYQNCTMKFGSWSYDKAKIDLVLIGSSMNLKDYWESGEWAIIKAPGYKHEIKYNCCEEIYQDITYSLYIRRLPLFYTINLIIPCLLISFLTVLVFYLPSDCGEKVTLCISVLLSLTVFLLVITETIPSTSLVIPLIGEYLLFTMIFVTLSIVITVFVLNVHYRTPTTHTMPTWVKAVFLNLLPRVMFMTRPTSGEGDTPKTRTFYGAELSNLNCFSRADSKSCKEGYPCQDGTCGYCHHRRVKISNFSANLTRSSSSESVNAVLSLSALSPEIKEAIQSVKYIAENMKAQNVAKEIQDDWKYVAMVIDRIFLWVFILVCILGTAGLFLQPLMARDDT

For `Clc1ccc(C2CC3CCC2N3)cn1` (centres unmarked) [Compound 1, epibatidine], the “nicotinic receptor agonist activity (time-bioactivity profile of HPLC fractions)” value in assay [1] is recorded as “active in all cell lines to varying degrees; also recorded: greatest activity in the sample regardless of cell line examined”.
Turning to `CC(=O)N[C@H]1CCCN2CCCC[C@@H]12` [Compound 2, epiquinamide, reference compound], the “nicotinic-agonist activity of isolated fraction” value in assay [2] (cells expressing α3 and β4 subunits, fractions of E. anthonyi alkaloid extract) was “artifactual activity from cross contamination with epibatidine”. Moreover, in assay [1], the “nicotinic receptor agonist activity (time-bioactivity profile of HPLC fractions)” value is recorded as “artifact due to a cross-contamination from 1”.
As for `CN1C2CCC1C(c1ccc(Cl)nc1)C2` (centres unmarked) [Compound 3, N-methylepibatidine], the “potency relative to epibatidine” value in the assay on nicotinic receptors is listed as “essentially equipotent with epibatidine”. The “nicotinic receptor agonist activity (time-bioactivity profile of HPLC fractions)” value in assay [1] is listed as “responsible for the leading edge of the epibatidine activity; also recorded: significant bioactivity”.
Consider `Clc1ccc2c(n1)O[C@@]13CC[C@@H]1NC[C@@H]23` [Compound 4, Phantasmidine], for which the “relative activity compared to 1 (height and area of activity peaks)” value is “higher relative activities” in assay [2] (KXα3β4R2 cells); “less activity” in [3]; “higher relative activities” in [4]; “less activity” in assay [5]; “less activity” in assay [6]; “higher relative activities” in assay [7]. In addition, the “relative activity compared to 1 (height and area of activity peaks)” value in [8] is recorded as “higher relative activities”. For the same compound, in assay [1] (across several cell lines expressing different nicotinic-receptor subtypes), the “subtype selectivity relative to 1” value is “altered subtype selectivity relative to 1”. Besides, the “nicotinic receptor agonist activity (time-bioactivity profile of HPLC fractions)” value in assay [1] is given as “significant bioactivity; also recorded: nicotinic agonist”.
